In patent US10947270B2, “Targeted prodrug cytosine deaminase fusion carrier and application thereof” (National Yang-Ming University, priority 2015, dated 2021):

Columns and labels:
[1] = test system: U87MG, HUVEC and MCF-7 cells; assay: MTT cytotoxic test of EcCD series, statements for several cells; assay type: cell-based, human; conditions: 5-FC alone
Procedure: (§1) Relative cell viability was measured by MTT assay. The 50 nM EcCD series fusion protein is applied to U87MG, HUVEC and MCF-7 cells at 37° C. for 2 hours, after washing the unbound protein with PBS.

[2] = test system: HUVEC, U87MG and MCF-7 cells; assay: MTT cytotoxicity assay of yCD series, statements for all three cells; assay type: cell-based, human; conditions: 5-FC alone
Procedure: (§2) The cell viability was determined by MTT assay. The seeded HUVEC cells shown in FIG. 7A, the seeded U87MG cells shown in FIG. 7B and the 96 wells of seeded MCF-7 cells shown in FIG. 7C are respectively added with 500 nM RGD4C-yCD, yCD, RGD4C-yCD/UPRT and yCD/UPRT recombinant protein, after removing the recombinant protein not bound with the cells and washing the cells, add 5-FC with different concentrations and observe the cell killing effect. Cells of the control groups were only incubated with different concentrations of 5-FU or 5-FC without protein treatment.
(§3) In this experiment, the MTT assay is applied to measure cytotoxicity induced by RGD4C-yCD/5-FC and RGD4C-yCD/UPRT/5-FC of the targeted prodrug enzyme fusion protein. In 96-well plate of seeded cells is respectively added with recombinant proteins such as 500 nM RGD4C-yCD, yCD, RGD4C-yCD/UPRT and yCD/UPRT, and co-cultured at 37° C. for 2 hours. The recombinant proteins not bound with cells are discarded. The cells were washed, and then were treated with different concentrations of 5-FC for observing the effect of cytotoxicity. On the other hand, the cells only treated with different concentrations of 5-FC and 5-FU separately as the control group.

U87MG cells [3] = assay: MTT cytotoxic test of EcCD series fusion protein (50 nM) coupled with 5-FC; assay type: cell-based; conditions: Homo sapiens, U-87 MG, 5-FU alone, 72 hours
Procedure: as §1

MCF-7 cells [4] = assay: as above; assay type: cell-based; conditions: Homo sapiens, MCF7, 5-FU alone, 72 hours
Procedure: as §1

HUVEC cells [5] = assay: as above; assay type: cell-based, human; conditions: 5-FU alone
Procedure: as §1

HUVEC and U87MG cells = assay: TUNEL apoptosis assay of yCD series fusion protein combined with 5-FC; assay type: cell-based, human; conditions: 500 nM protein, 100 μM 5-FC or 5-FU, 72 hours
Procedure: FIGS. 9A-9D show the cell apoptosis assay of the yCD series fusion protein combined with 5-FC in HUVEC and U87MG cells. […] And then TUNEL assay kit was used to detect the cell apoptosis (red signal: DNA fragment detected by TUNEL assay kit; blue signal: Hoechst 33342 cell nuclear stain). Cells of the control groups were only incubated with different concentrations of 5-FU or 5-FC without protein treatment. […] (*P value<0.05; Calibration scale: 20 μm)
Previous literature pointed out that 5-FU can promote apoptosis by inhibiting the synthesis of cellular DNA. This experiment is performed on apoptosis analysis to evaluate whether the enzyme precursor treatment system of RGD4C-yCD/5-FC and RGD4C-yCD/UPRT/5-FC can kill the cells by apoptotic mechanism. HUVEC and U87MG cells are co-cultured with culture medium containing 500 nM RGD4C-yCD and RGD4C-yCD/UPRT protein for 2 hours at 37° C., remove and wash the unbound or endocytic proteins, add 100 μM 5-FC or 5-FU, after acting for 72 hours, the DNA fragment of the apoptosis is stained with fluorescence by TUNEL assay analysis set, and the apoptosis is observed by conjugated fluorescence microscope. […] Furtherly, TUNEL fluorescence signals are quantified by image analysis software MetaMorph. […]

HUVEC cells [6] = assay: MTT cytotoxicity assay of yCD series protein combined with 5-FC; assay type: cell-based; conditions: Homo sapiens, 5-FU alone
Procedure: as §2, §3

U87MG cells [7] = assay: as above; assay type: cell-based; conditions: Homo sapiens, U-87 MG, 5-FU alone
Procedure: as §2, §3

MCF-7 cells [8] = assay: as above; assay type: cell-based, human
Procedure: as §2, §3

HUVEC cells [9] = assay: Competitive cell uptake with cRGDfk; assay type: cell-based, human; conditions: cRGDfk 1000-fold molar excess, 4 hours
Procedure: (§4) The uptake of ^111In-DTPA-yCD is low in the all three cell lines. […] The uptake amount of ^111In-DTPA-RGD4C-yCD by each cell strain is used as a control group, and analyzed by two sample t-test statistical methods, *P-value<0.05, **P-value<0.01, ***P-value<0.001, ****P-value<0.0001.
(§5) ^111In-DTPA-yCD and ^111In-DTPA-RGD4C-yCD (20 μCi/50 pmol/mL) are separately added to the 24-well plate of the seeded cells (2.5×10^5 cells/well) and cultured for 4 hours, and then the radioactivity of the cells and culture medium are separately measured, calculate the uptake amount of the drug by the cells (shown as % AD/10^6 cells).

U87MG cells [10] = assay: Competitive cell uptake with cRGDfk; assay type: cell-based, human; conditions: cRGDfk 1000-fold molar excess, 4 hours
Procedure: as §4, §5

MCF-7 cells [11] = assay: Competitive cell uptake with cRGDfk; assay type: cell-based, human; conditions: cRGDfk 1000-fold molar excess, 4 hours
Procedure: as §4, §5

ES-2-luc cells = assay: Competitive cell uptake with cRGDfk; assay type: cell-based; conditions: cRGDfk 1000-fold molar excess, 4 hours
[12] = assay type: physicochemical
Procedure: The radiochemical purity of ^111In-DTPA-yCD and ^111In-DTPA-RGD4C-yCD are greater than 95% after marking and purification. Both are stored in HEPES buffer liquid (4° C.) for 48 hours, and the radiochemical purity is still higher than 85% (see FIG. 26). Both are placed in fetal bovine serum (37° C.) to simulate their stability in vivo. After 48 hours, the radiochemical purity of both is about 80%. It is shown that radioactive metal indium-111 is stably chelated on DTPA.

[13] = design: species or system nude mice; conditions: mouse, in vivo
Procedure: ES-2-luc tumor nude mice is intraperitoneally injected with 50 μCi (2.5 μg) ^111In-DTPA-yCD and ^111In-DTPA-RGD4C-yCD for 1, 4 and 24 hours, then organs are collected and their radioactivity is measured to obtain biodistribution, as shown in Table 19 and Table 20. […] In addition to the part accumulated in the tumor, another part of the drug is absorbed back into the blood circulation system by the peritoneal blood vessels. […] The pancreatic radioactivity of the two drugs is observed after 1 hour of injection. The pancreatic radioactivity of ^111In-DTPA-RGD4C-yCD (8.06±0.88% ID/g) is higher than that of ^111In-DTPA-yCD (3.91±0.36% ID/g), it is suspected that tumor cells invade the pancreas.

[14] = design: species or system nude mice; conditions: mouse, in vivo; remark: listed apart in the source
Procedure: The arrow is marked as a tumor.
In in-vitro cell experiment, the binding ability of ^111In-DTPA-RGD4C-yCD and the integrin αvβ3 receptor on the cell membrane has been verified. In order to know whether the drug can show its target effect in vivo, integrin αvβ3 is seeded subcutaneously in the right side of nude mice. After the high-expression U87MG tumor cells are grown to 100 mm^3, 60-70 μCi (3-3.5 μg) of ^111In-DTPA-yCD and ^111In-DTPA-RGD4C-yCD are injected directly into the tumor, the images are collected by microSPECT/CT after 1, 4, 24, 48 hours. It can be seen from the image (see FIG. 31) that the drug retention in the ^111In-DTPA-RGD4C-yCD group (orange arrow) is better than that in the ^111In-DTPA-yCD, and the target ligand RGD4C is missing. ^111In-DTPA-yCD enters the systemic blood circulation system within 1 hour and is metabolized by normal organs. From FIG. 31, it can be seen that the kidney is the main metabolic organ of these two drugs. […] After 24-48 hours, the amount of accumulation in the tumor is running out. On the contrary, ^111In-DTPA-RGD4C-yCD is bound with integrin αvβ3 on tumor cells, then the ratio of drug entering the systemic blood circulation is reduced, and the metabolic rate is slow.

Question: Which survival rate [1] does the source give for `Nc1nc(=O)[nH]cc1F` [5-FC, 5-fluorocytosine] here?
Answer: ~100%

Question: And the “cytotoxic ability” value [2]?
Answer: not significant cytotoxic ability

Question: With `O=c1[nH]cc(F)c(=O)[nH]1` [5-FU, 5-fluorouracil] as the molecule, how does the IC50 (U87MG cells [3]) read?
Answer: 6.5 ± 0.2 µM

Question: And the IC50 (MCF-7 cells [4])?
Answer: 25.6 ± 0.3 µM

Question: What about the IC50 (HUVEC cells [5]; 72 hours) of the same molecule?
Answer: 6.2 ± 1.3 µM

Question: What about the IC50 (HUVEC cells [5]; Homo sapiens, 72 h) of the same molecule?
Answer: 6.5 ± 1.3 µM

Question: And the “apoptosis (TUNEL, words)” value (HUVEC and U87MG cells)?
Answer: a large amount of apoptosis

Question: What about the IC50 (HUVEC cells [6]) of the same molecule?
Answer: 1.6 ± 0.2 µM

Question: And the IC50 (U87MG cells [7])?
Answer: 1.6 ± 0.3 µM

Question: What about the IC50 (MCF-7 cells [8]; 5-FU alone) of the same molecule?
Answer: 2.2 ± 0.3 µM

Question: What about the IC50 (MCF-7 cells [8]; Homo sapiens, MCF7, 5-FU alone) of the same molecule?
Answer: 2.1 ± 0.3 µM

B1: ^111In-DTPA-RGD4C-yCD: indium-111 labeled DTPA-RGD4C-yCD protein (conjugate)
chain: MACDCRGDCFCVTGGMASKWDQKGMDIAYEEAALGYKEGGVPIGGCLINNKDGSVLGRGHNMRFQKGSATLHGEISTLENCGRLEGKVYKDTTLYTTLSPCDMCTGAIIMYGIPRCVVGENVNFKSKGEKYLQTRGHEVVVVDDERCKKIMKQFIDERPQDWFEDIGELEHHHHHH
Question: Which results are given for B1?
Answer: decrease of cell uptake by cRGDfk (HUVEC cells [9]): about 65%; decrease of cell uptake by cRGDfk (U87MG cells [10]): ~55%; decrease of cell uptake by cRGDfk (MCF-7 cells [11]): ~45%; decrease of cell uptake by cRGDfk (ES-2-luc cells): about 70%; radiochemical purity after incubation [12]: about 80%; radioactivity in the peritoneal cavity reduced to (fraction of 1 hour value) [13]: ¼; radioactivity in tumor higher than that of ^111In-DTPA-yCD [13]: approximately 3 times; accumulation in the tumor [14]: considerable drug accumulation in the tumor
